Results on 10 compounds are retold here after patent publication US12384756B2, “Piperidinedione derivatives” (INNOCURE THERAPEUTICS, INC., priority 2021, dated 2025).

For assay [1], the system named is Human breast cancer cell line [MDA-MB-231]. Put plainly: Anti-proliferative activity (WST-8) of BRD4 targeted PROTAC in MDA-MB-231. Format: cell-based. The conditions noted are these: MDA-MB-231, 72 hours. On the procedure: (§1) Human breast cancer cell line [MDA-MB-231] was cultured in RPMI medium with 10% petal bovine serum, penicillin [100 U/ml] and streptomycin [[…]]. The synthesized compound was prepared as a stock solution of 10 mM or 50 mM dissolved in DMSO [dimethyl sulfoxide], and it was sequentially diluted to treat the cell line.
In order to observe inhibition of cell growth, cells were aliquoted into concentrations of 5,000 cells/well at 96 well plates, and then were treated with samples prepared at various concentrations for 72 hours. The cell survival was calculated by steps of adding in each well […] of water soluble tetrazolium salt (WST-8) which produces formazon in response to dehydrogenase present in the electron transport chain in mitochondria, incubating for 2 hours, measuring the absorbance at 450 nm, and calculating by GraphicPad Prism 8.0 software.

Assay [2] deals with BRD4 (Homo sapiens, UniProt O60885). Put plainly: BRD4 protein degradation by western blot in MDA-MB-231 cells. It counts as cell-based. The conditions noted are these: MDA-MB-231, 24 hours; for DC50: 50% inhibition of protein expression, read-out: DC50 of BRD4-targeted PROTAC. More on the design: BRD4 expressed in cells; endogenous in cells; host or cells: MDA-MB-231. On the procedure:
as §1
To evaluate the PROTAC's degradation ability to BRD4 expressed in cells, the cells were aliquoted into a 6 well plate at a concentration of 5×10^5 cells/ml, and then the sample was treated for 24 hours. In order to conduct western blotting assay to confirm protein expression, the cell treated with the compound was treated for 30 minutes with 70 μL of RIPA buffer wherein protease inhibitor is added. Then, cell lysate was collected on ice using a scraper and centrifuged at 4° C. 15,000 rpm for 30 minutes to obtain a supernatant containing protein. Then, SDS-PAGE is conducted for 10 μg of protein per each sample, and the protein is transferred to a membrane. The protein is reacted with antibodies of anti-BRD4, anti-tubulin and anti-GAPDH at 4° C. for 16 hours, and then, reacted with secondary antibodies at room temperature for 1 hour. The protein expression is confirmed using SUPERSIGNAL™ WEST PICO PLUS chemiluminescence substrate and image analyzer. The protein expression was normalized based on the expression value of β-tublin or GAPDH. The amount of protein expression in each sample was measured in % based on the sample treated with 0.1% DMSO vehicle which was set to 100%. The amount of protein expression was quantified using the IMAGE J PROGRAM. The change in the amount of protein expression due to the treatment of compound (DC50: the concentration of compounds where the 50% inhibition of protein expression is achieved) was calculated using […] PRISM 8.0 software.

Setting [3] is: Homo sapiens, WST-8, read-out: IC50 of BRD4-targeted PROTAC (cell proliferation).
Where [4] appears, read: Homo sapiens, read-out: concentration at which cancer cell proliferation is effectively inhibited.

Read-outs that look alike come from different tables or passages of the source. Some results are limits rather than exact numbers.

`Cc1sc2c(c1C)C(c1ccc(Cl)cc1)=N[C@@H](CC(=O)Nc1cccc(OCCOCCOCCNc3cccc4c(C)nn(C5CCC(=O)NC5=O)c(=O)c34)c1)c1nnc(C)n1-2` (stereo partly drawn) [Example 39, 2-((S)-4-(4-chlorophenyl)-2,3,9-trimethyl-6H-thieno[3,2-f][1,2,4]triazolo[4,3-a][1,4]diazepin-6-yl)-N-(3-(2-(2-(2-((3-(2,6-dioxopiperidin-3-yl)-1-methyl-4-oxo-3,4-dihydrophthalazin-5-yl)amino)ethoxy)ethoxy)ethoxy)phenyl)acetamide]: the IC50 in assay [1] (setting [3]) is less than 1 nM; in assay [1] (setting [4]), less than 250 nM. Besides, the “BRD4 degradation (in words)” value in assay [2] is “effectively degraded”. In addition, the DC50 in assay [2] was found to be 0.575 nM.
The matching figures for `Cc1sc2c(c1C)C(c1ccc(Cl)cc1)=N[C@@H](CC(=O)NCC#Cc1ccc3c(=O)n(C4CCC(=O)NC4=O)ncc3c1)c1nnc(C)n1-2` (stereo partly drawn) [Example 40, 2-((S)-4-(4-chlorophenyl)-2,3,9-trimethyl-6H-thieno[3,2-f][1,2,4]triazolo[4,3-a][1,4]diazepin-6-yl)-N-(3-(2-(2,6-dioxopiperidin-3-yl)-1-oxo-1,2-dihydrophthalazin-6-yl)prop-2-yn-1-yl)acetamide]: 227 nM, less than 250 nM, “effectively degraded” and 10.9 nM.
For `Cc1sc2c(c1C)C(c1ccc(Cl)cc1)=N[C@@H](CC(=O)Nc1cccc(OCCOCCOCCNc3ccc4c(=O)n(C5CCC(=O)NC5=O)ncc4c3)c1)c1nnc(C)n1-2` (stereo partly drawn) [Example 41, 2-((S)-4-(4-chlorophenyl)-2,3,9-trimethyl-6H-thieno[3,2-f][1,2,4]triazolo[4,3-a][1,4]diazepin-6-yl)-N-(3-(2-(2-(2-((2-(2,6-dioxopiperidin-3-yl)-1-oxo-1,2-dihydrophthaazin-6-yl)amino)ethoxy)ethoxy)ethoxy)phenyl)acetamide], the IC50 in assay [1] (setting [3]) came out at 137 nM. In addition, in assay [1] (setting [4]), the IC50 was less than 250 nM. In addition, in assay [2], the “BRD4 degradation (in words)” value is “effectively degraded” and the DC50 is 4.4 nM.
The matching figures for `Cc1sc2c(c1C)C(c1ccc(Cl)cc1)=N[C@@H](CC(=O)Nc1cccc(OCCOCCOCCNc3ccc4cnn(C5CCC(=O)NC5=O)c(=O)c4c3)c1)c1nnc(C)n1-2` (stereo partly drawn) [Example 42, 2-((S)-4-(4-chlorophenyl)-2,3,9-trimethyl-6H-thieno[3,2-f][1,2,4]triazolo[4,3-a][1,4]diazepin-6-yl)-N-(3-(2-(2-(2-((3-(2,6-dioxopiperidin-3-yl)-4-oxo-3,4-dihydrophthalazin-6-yl)amino)ethoxy)ethoxy)ethoxy)phenyl)acetamide]: 20.3 nM, less than 250 nM, “effectively degraded” and 10.7 nM.
For `Cc1sc2c(c1C)C(c1ccc(Cl)cc1)=N[C@@H](CC(=O)NCCNc1cccc3cnn(C4CCC(=O)NC4=O)c(=O)c13)c1nnc(C)n1-2` (stereo partly drawn) [Example 43, 2-((S)-4-(4-chlorophenyl)-2,3,9-trimethyl-6H-thieno[3,2-f][1,2,4]triazolo[4,3-a][1,4]diazepin-6-yl)-N-(2-((3-(2,6-dioxopiperidin-3-yl)-4-oxo-3,4-dihydrophthalazin-5-yl)amino)ethyl)acetamide], the IC50 in assay [1] (setting [3]) is more than 1000 nM. For the same compound, in assay [2], the half-maximal degradation concentration (DC50) was determined as 185 nM.
The matching figures for `Cc1sc2c(c1C)C(c1ccc(Cl)cc1)=N[C@@H](CC(=O)NCCNc1cccc3c(=O)n(C4CCC(=O)NC4=O)ncc13)c1nnc(C)n1-2` (stereo partly drawn) [Example 44, 2-((S)-4-(4-chlorophenyl)-2,3,9-trimethyl-6H-thieno[3,2-f][1,2,4]triazolo[4,3-a][1,4]diazepin-6-yl)-N-(2-((2-(2,6-dioxopiperidin-3-yl)-1-oxo-1,2-dihydrophthalazin-5-yl)amino)ethyl)acetamide]: more than 1000 nM and 930 nM.
On the same counts, the results for `Cc1sc2c(c1C)C(c1ccc(Cl)cc1)=N[C@@H](CC(=O)NCCOc1cccc3cnn(C4CCC(=O)NC4=O)c(=O)c13)c1nnc(C)n1-2` (stereo partly drawn) [Example 45, 2-((S)-4-(4-chlorophenyl)-2,3,9-trimethyl-6H-thieno[3,2-f][1,2,4]triazolo[4,3-a][1,4]diazepin-6-yl)-N-(2-((3-(2,6-dioxopiperidin-3-yl)-4-oxo-3,4-dihydrophthalazin-5-yl)oxy)ethyl)acetamide] are more than 1000 nM and 108 nM.
As to `Cc1sc2c(c1C)C(c1ccc(Cl)cc1)=N[C@@H](CC(=O)NCCN1CCN(c3ccc4c(=O)n(C5CCC(=O)NC5=O)ncc4c3)CC1)c1nnc(C)n1-2` (stereo partly drawn) [Example 48, 2-((S)-4-(4-chlorophenyl)-2,3,9-trimethyl-6H-thieno[3,2-f][1,2,4]triazolo[4,3-a][1,4]diazepin-6-yl)-N-(2-(4-(2-(2,6-dioxopiperidin-3-yl)-1-oxo-1,2-dihydrophthalazin-6-yl)piperazin-1-yl)ethyl)acetamide], the IC50 in assay [1] (setting [3]) came to 2.15 nM. Besides, the IC50 in assay [1] (setting [4]) is less than 250 nM. In assay [2], the “BRD4 degradation (in words)” value is “effectively degraded” and the half-maximal degradation concentration (DC50) is 5.9 nM.
For the compound `Cc1sc2c(c1C)C(c1ccc(Cl)cc1)=N[C@@H](CC(=O)NCCN1CCN(c3ccc4cnn(C5CCC(=O)NC5=O)c(=O)c4c3)CC1)c1nnc(C)n1-2` (stereo partly drawn) [Example 49, 2-((S)-4-(4-chlorophenyl)-2,3,9-trimethyl-6H-thieno[3,2-f][1,2,4]triazolo[4,3-a][1,4]diazepin-6-yl)-N-(2-(4-(3-(2,6-dioxopiperidin-3-yl)-4-oxo-3,4-dihydrophthalazin-6-yl)piperazin-1-yl)ethyl)acetamide], the IC50 in assay [1] (setting [3]) came to 30.6 nM. Besides, the IC50 in assay [1] (setting [4]) is less than 250 nM. Moreover, in assay [2], the “BRD4 degradation (in words)” value is “effectively degraded” and the DC50 came out at 40.7 nM.
With “N-(4-(2-(2,6-dioxopiperidin-3-yl)-1-oxo-1,2-dihydrophthalazin-6-yl)butyl)-2-((S)-2,3,9-trimethyl-4-phenyl-6H-thieno[3,2-f][1,2,4]triazolo[4,3-a][1,4]diazepin-6-yl)acetamide [Example 47]”, the IC50 in assay [1] (WST-8, read-out: IC50 of BRD4-targeted PROTAC (cell proliferation)) was found to be 754 nM. Also, the DC50 in assay [2] turned out to be 52.3 nM.
